Assay results as given in patent publication US20180200233A1, “COMPOSITIONS FOR PREVENTING CANCERS ASSOCIATED WITH HUMAN PAPILLOMA VIRUSES” (Loma Linda University, priority 2015, published 2018).

B1: TRAIL: tumor necrosis factor-related apoptosis-inducing ligand; extracellular domain of human TRAIL, His-tagged, expressed in E. coli (protein, UniProt P50591 39-281, looked up)
extracellular domain: TNELKQMQDKYSKSGIACFLKEDDSYWDPNDEESMNSPCWQVKWQLRQLVRKMILRTSEETISTVQEKQQNISPLVRERGPQRVAAHITGTRGRSNTLSSPNSKNEKALGRKINSWESSRSGHSFLSNLHLRNGELVIHEKGFYYIYSQTYFRFQEEIKENTKNDKQMVQYIYKYTSYPDPILLMKSARNSCWSKDAEYGLYSIYQGGIFELKENDRIFVSVTNEHLIDMDHEASFFGAFLVG
modifications: extracellular domain His tag
notes: tumor necrosis factor-related apoptosis-inducing ligand; extracellular domain of human TRAIL, His-tagged, expressed in E. coli

Columns and labels:
[1] = molecular target: T1, GST-caspase 8/His-caspase 8 (Homo sapiens, UniProt Q14790); assay: AlphaScreen counter-screen, GST-caspase 8/His-caspase 8 binding; conditions: for inhibition of caspase 8/caspase 8 interaction (in words): FIG. 2C
T1 construct: pTriEx-Caspase-8 DED plasmids; fused on or other part: GST tag on one copy, His tag on the other (AlphaScreen bead handles)
Experimental: (§1) FIGS. 2A-C are graphs providing data regarding inhibition of protein-protein interactions by 3-(1H-indol-1yl)propan-1-amine (1), three benzimidazole derivatives (2-4), and spinacine (5). Compounds, at the indicated concentrations (1.4 μM to 3.2 mM) were tested using a bead-based screening assay for their ability to inhibit three different protein/protein interactions: (FIG. 2A) GST-E6/His-caspase 8; (FIG. 2B) GST-E6/HisE6AP; and (FIG. 2C) GST-caspase 8/His-caspase 8. Binding in the presence of 1.4 μM of the test compound was set at 100%. Experiments were performed in triplicate, and error bars indicate the standard deviation.
To ask whether this inhibition was specific, a counter-screening assay was employed the ability of candidates to inhibit the binding of GST-caspase 8 to His-caspase 8 was assessed; those that did were to be eliminated. In this counter-screening assay, the materials in each well were the same as in the primary screen, with the exception that GST-caspase 8 replaced GST-E6.
(§2) Alpha-Screen™ technology was used to assess the interactions between GST-E6, GST-caspase 8, His-E6AP, and His-caspase 8. Binding assays were performed in white 384-well plates (Perkin-Elmer) in a total volume of 25 μl as previously described (Tungteakkhun, S. S., et al., The interaction between human papillomavirus type 16 and FADD is mediated by a novel E6 binding domain. Journal of virology, 2008. 82(19): p. 9600-14). Briefly, 5 μl (50 ng) of GST-E6 and 5 μl (87.5 ng) of His-caspase 8 were included in each reaction mixture with 5 μl blocking buffer (0.5 mg BSA, 0.5% Tween 20 in PBS) in the absence or presence of 10 μM of each test chemical. Members of the library were present at M in DMSO. After a one-hour incubation of the mixture at room temperature, 5 μl donor beads and 5 μl acceptor beads (Perkin-Elmer) were added to each well according to the manufacturer's protocol. The mixture was incubated in the dark at room temperature overnight, and the emitted signal was detected using the Envision Multilabel plate reader (Perkin-Elmer). In the presence of test chemicals, the binding affinity was calculated as a percentage of the binding in the presence of carrier only (DMSO).

GST-E6/His-E6AP = molecular target: T2, GST-E6/His-E6AP (Human papillomavirus type 16, UniProt P03126); assay: AlphaScreen bead-based assay, GST-E6/His-E6AP binding; design: species or system HPV 16; conditions: for inhibition of E6/E6AP interaction (in words): FIG. 2B
T2 construct: made in house
Experimental: as §1
(§3) To determine the dose-responsiveness of these five compounds, variable concentrations of those small molecules were first tested for their ability to inhibit E6/caspase binding. […] These molecules, which had been selected for their ability to interfere with E6/caspase 8 binding, were then tested to determine if they could also affect other interactions of E6, such as its binding to E6-associated protein (E6AP). The E6/E6AP interaction is required for the E6-mediated acceleration of p53 degradation (Huibregtse, J. M., M. Scheffner, and P. M. Howley, A cellular protein mediates association of p53 with the E6 oncoprotein of human papillomavirus types 16 or 18. The EMBO journal, 1991. 10(13): p. 4129-35).
as §2

GST-E6/His-caspase 8 = molecular target: T3, GST-E6/His-caspase 8 (Human papillomavirus type 16, UniProt P03126); assay: AlphaScreen bead-based assay, GST-E6/His-caspase 8 binding; design: species or system HPV 16; conditions: for inhibition of E6/caspase 8 binding (in words): FIG. 2A, primary screen at 10 μM
T3 construct: made in house
Experimental: as §1
HPV E6 binds to caspase 8 (Garnett, T. O., M. Filippova, and P. J. Duerksen-Hughes, Accelerated degradation of FADD and procaspase 8 in cells expressing human papilloma virus 16 E6 impairs TRAIL-mediated apoptosis. Cell death and differentiation, 2006. 13(11): p. 1915-26), and myricetin can block the E6/caspase 8 interaction in vitro (Yuan, C. H., et al., Small molecule inhibitors of the HPV16-E6 interaction with caspase 8. Bioorganic & medicinal chemistry letters, 2012. 22(5): p. 2125-9). A bead-based assay based on AlphaScreen™ technology (Perkin-Elmer) is used to identify inhibitors of the E6/caspase 8 interaction (Yuan, C. H., et al., Small molecule inhibitors of the HPV16-E6 interaction with caspase 8. Bioorganic & medicinal chemistry letters, 2012. 22(5): p. 2125-9). The ActiProbe 2K (2,000 compounds) library was screened using the same approach. […] Analysis of the structures and physical/chemical characteristics of those molecules led to the selection of five additional compounds: 3-(1H-indol-1-yl)propan-1-amine methanesulfonate (1), benzimidazole (2), 1H-benzimidazole-1-methanol (3), 2-(methoxymethyl)-1H-benzimidazole (4), and spinacine (5) for further study (FIG. 1).
as §3
as §2, with “Members of the library were present at M in DMSO. After a one-hour incubation of the mixture at room temperature, 5 μl donor beads and 5 μl acceptor beads (Perkin-Elmer) were added to each well according to the manufacturer's protocol.” left out

[2] = tested on: UPCI-SCC90-UP-Clone 35 (#90) cells; assay: MTT cell viability, HPV+ HNSCC cell line #90 with TRAIL; format: cell-based; conditions: all selected cell lines; TRAIL as high as 100 ng/ml, FIG. 7A
Experimental: FIGS. 7A-E are graphs showing myricetin and spinacine (5) re-sensitized HPV^+, but not HPV^−, head and neck cancer cell lines to treatment with TRAIL. (FIG. 7A) Both HPV^− and HPV^+ HN cancer cell lines display resistance to TRAIL treatment. HPV^− (#84) (Myricetin—FIG. 7B; Spinacine—FIG. 7C) and HPV^+ (#90) (FIG. 7D; Spinacine—FIG. 7E) head and neck cancer cell lines (2×10^4 cells per well) were seeded into 96-well plates and allowed to incubate overnight, then cells were pre-treated with myricetin (0-200 μM) or spinacine (0-100 μM) for 4 h. […] of TRAIL, along with cycloheximide (5 μg/ml) was added and cells were allowed to incubate overnight. Cell viability was measured by the MTT assay, and the viability of cells untreated with small molecules was set at 100%. Experiments were performed in triplicate, and error bars indicate the standard deviation.
As shown above, myricetin and spinacine sensitize SiHa cells to TRAIL and chemotherapy drugs. […] Other types of HPV^+ cancer cells were examined, and in particular, head and neck squamous cell carcinoma (HNSCC) cells can also be sensitized in this manner. […] For the combination experiments, 50 ng/ml TRAIL was applied in combination with either myricetin (0-200 μM) or spinacine (0-100 μM). […] In contrast […], TRAIL-induced cell death was enhanced 30% in UPCI-SCC90-UP-Clone 35, #90. Furthermore, 40 μM spinacine was able to enhance TRAIL-induced cell death in the HPV^+ #90 cell lines up to 50%.
The extracellular domain of human TRAIL was cloned into a pTriEx expression plasmid containing N-terminal Hisx6 tag. His-TRAIL was expressed in the E. coli BL-21 pLys strain and purified as previously described. Doxorubicin and cisplatin were purchased from Sigma. His-TRAIL, doxorubicin, and cisplatin were diluted in PBS to the desired concentration before using. […] All experiments were repeated at least three times (three biological replicates, carried out on different days), with each experimental group measured in triplicate within each of these individual experiments. […]

SiHa cells = assay: MTT cell viability, SiHa cells, TRAIL-induced apoptosis; format: cell-based, human; conditions: SiHa cells in comparison to U2OS cells; with cycloheximide 5 μg/ml, FIG. 3A
Experimental: FIGS. 3A-E are graphs providing data regarding resistance of HPV^+ SiHa cells to TRAIL-, cisplatin- and […] apoptosis, in the presence and absence of small molecules as disclosed herein. (FIG. 3A) HPV^+ SiHa cells are resistant to TRAIL-induced apoptosis as compared to the human osteosarcoma cell line U2OS. Cells (2×10^4 cells per well) were seeded into a 96-well plate, allowed to incubate overnight, and then treated with indicated concentration of TRAIL in the presence of cycloheximide (5 μg/ml). The viability of cells was measured after overnight incubation using the MTT assay; the viability of cells untreated with TRAIL was set at 100% for each group. (FIG. 3B) The indicated concentrations of three small molecules were added to SiHa cells, and an MTT assay was preformed after overnight incubation. The viability of cells untreated with small molecules was set as 100%. (FIG. 3C) The indicated concentrations of myricetin or spinacine were added 4 h prior to TRAIL (100 ng/ml) in the presence of cycloheximide (5 μg/ml) and incubated at 37° C. overnight. The viability of cells untreated with small molecules was set at 100%. (FIG. 3D and FIG. 3E) SiHa cells (2×10^4 cells per well) were seeded into a 96-well plate and allowed to incubate overnight. 100 μM of myricetin and 50 μM of spinacine were added 4 h prior to either (FIG. 3D) doxorubicin or (FIG. 3E) cisplatin. Cell viability was measured after overnight incubation using the MTT assay, and the viability of cells untreated with either myricetin or spinacine was set at 100%. Experiments were performed in triplicate, and error bars indicate the standard deviation.
FIGS. 5A-B are graphs showing myricetin and spinacine (5) re-sensitized HPV^+, but not HPV^−, cells to treatment with TRAIL. SiHa (2×10^4 cells per well) and C33A cells (1×10^4 cells per well) were seeded into a 96-well plate and allowed to incubate overnight, then cells were pre-treated in the presence or absence of myricetin (100 μM) (FIG. 5A) or spinacine (50 μM) (FIG. 5B) for 4 h. The indicated concentration of TRAIL, along with cycloheximide (5 μg/ml) was added and cells were allowed to incubate overnight. Cell viability was measured by MTT assay, and the viability of cells untreated with TRAIL was set at 100%. Experiments were performed in triplicate, and error bars indicate the standard deviation.
The molecules were then tested to determine whether those that block E6/caspase 8 binding in vitro could also act in the context of a cell. SiHa cells are an HPV^+ cell line, derived from a cervical carcinoma, which serves as a commonly used model for HPV-associated malignancies. To determine whether HPV^+ SiHa cells are resistant to TRAIL-induced apoptosis, SiHa cells were treated with TRAIL and cell viability was assessed. TRAIL-sensitive, HPV^− U2OS cells served as a positive control. […] Myricetin and/or spinacine were tested to determine if they could sensitize these HPV^+ cells to TRAIL-induced apoptosis. […] Table 2 lists and compares the concentrations of the three tested compounds required to induce death in 50% of SiHa cells in the presence or absence of TRAIL.
The extracellular domain of human TRAIL was cloned into a pTriEx expression plasmid containing N-terminal Hisx6 tag. His-TRAIL was expressed in the E. coli BL-21 pLys strain and purified as previously described. Doxorubicin and cisplatin were purchased from Sigma. His-TRAIL, doxorubicin, and cisplatin were diluted in PBS to the desired concentration before using. To measure cell survival following treatment with TRAIL, cisplatin and doxorubicin, SiHa (2×10^4/well), C33A (1×10^4/well), and HNSCC cells (2×10^4/well) were seeded into 96-well plates and allowed to adhere overnight. Small molecules at the desired concentration were added and incubated at 37° C. for 4 h. As indicated, TRAIL, cisplatin or doxorubicin was then added. […]

[3] = bead-based assay, compounds tested 1.4 μM to 3.2 mM

T1 sequence (Q14790 whole entry, the tested form may be a part): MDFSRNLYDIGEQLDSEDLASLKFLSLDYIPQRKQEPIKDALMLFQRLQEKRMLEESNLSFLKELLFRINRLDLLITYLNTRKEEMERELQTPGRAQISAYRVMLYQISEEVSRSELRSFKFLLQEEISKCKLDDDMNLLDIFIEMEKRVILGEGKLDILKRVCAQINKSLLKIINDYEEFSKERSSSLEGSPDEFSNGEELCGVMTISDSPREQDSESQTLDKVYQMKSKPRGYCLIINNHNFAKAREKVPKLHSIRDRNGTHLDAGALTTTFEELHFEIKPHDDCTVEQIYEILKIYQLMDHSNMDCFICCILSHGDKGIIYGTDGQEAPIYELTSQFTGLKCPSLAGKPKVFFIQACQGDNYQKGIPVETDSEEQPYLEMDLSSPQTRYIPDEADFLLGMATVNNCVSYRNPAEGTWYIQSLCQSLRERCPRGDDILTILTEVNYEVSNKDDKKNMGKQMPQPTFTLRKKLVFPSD
T3 sequence (P03126 whole entry): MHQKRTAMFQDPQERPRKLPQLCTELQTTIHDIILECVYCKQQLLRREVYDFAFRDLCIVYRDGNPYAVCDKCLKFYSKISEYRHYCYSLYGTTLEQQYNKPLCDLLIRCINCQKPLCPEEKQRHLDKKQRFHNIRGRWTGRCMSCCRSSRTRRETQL
T2 sequence (P03126 whole entry): as above

| Molecule | inhibition of caspase 8/caspase 8 interaction (in words) [1] | inhibition of E6/E6AP interaction (in words) (GST-E6/His-E6AP) | inhibition of E6/caspase 8 binding (in words) (GST-E6/His-caspase 8) | other results |
| --- | --- | --- | --- | --- |
| CS(=O)(=O)O.NCCCn1ccc2ccccc21 [Compound 1, 3-(1H-indol-1-yl)propan-1-amine methanesulfonate] | able to inhibit the caspase 8/caspase 8 interaction | could also inhibit the E6/E6AP interaction | dose-dependent inhibition |  |
| c1ccc2[nH]cnc2c1 [Compound 2, benzimidazole] | able to inhibit the caspase 8/caspase 8 interaction | could also inhibit the E6/E6AP interaction | dose-dependent inhibition |  |
| COCc1nc2ccccc2[nH]1 [Compound 4, 2-(methoxymethyl)-1H-benzimidazole] |  |  |  | EC50 for GST-caspase 8/His-caspase 8 interaction ([1]; compounds tested 1.4 μM to 3.2 mM): No inhibition; EC50 for GST-E6/His-E6AP interaction (GST-E6/His-E6AP; [3]): No inhibition; EC50 for GST-E6/His-caspase 8 interaction (GST-E6/His-caspase 8; [3]): No inhibition |
| B1 |  |  |  | response of HNSCC cell lines to TRAIL alone (in words) [2]: resistance; response of cells to TRAIL alone (in words) (SiHa cells): relatively resistant |
